# Patent US12661353B2, “SPT5 inhibitors and uses thereof” (Yeda Research and Development Co. Ltd., priority 2020, dated 2026)
# Assays:
# [1] = test system: pro-inflammatory genes A20, CCL20, IL6, IL8, CXCL2, JUNB and IEX1; assay: mRNA levels of pro-inflammatory genes under basal conditions, HeLa, RT-qPCR; type: cell-based, human; settings: HeLa cells, 2 hours, 50 μM SPI
# Procedure: Cell culture—HEK293T, HeLa, MCF7, Jurkat and mouse embryonic fibroblasts (MEFs) cells were grown and maintained in Dulbecco's modified Eagle's medium supplemented with 10% fetal calf serum (Gibco) and 1% penicillin-streptomycin. To avoid NF-κB activity, HeLa cells were kept from reaching confluence and re-plated no more than 10 times following initial thawing. To induce NF-κB activity, cells were treated with […] recombinant human TNF-α (Peprotech) for the indicated times. STHdh Q111 and STHdh Q7 striatal cell lines (Coriell Institute for Medical Research) were grown in Dulbecco's modified Eagle's medium supplemented with 10% fetal calf serum (Gibco), 1% penicillin-streptomycin and 0.4 mg/ml G418 at 33° C. The cells were re-plated no more than 5-6 times, as recommended.
# RNA analysis—Total RNA was extracted using Tri-reagent (Bio-Lab Chemicals) and Direct-Zol™ RNA MiniPrep kit (Zymo Research). Following, cDNA was synthesized from […] of total RNA using a High-Capacity cDNA Reverse Transcription Kit (ABI, Thermo Fisher Scientific). cDNA samples were analyzed by quantitative PCR (qPCR) in a ViiA 7 Real-Time PCR System using Fast qPCRBIO SYBR Green Mix (PCR Biosystems).
# Thus, a subset of Spt5-responsive pro-inflammatory genes from the aforementioned studies and from others (Aida et al., 2006; Fujita et al., 2009), namely A20, CCL20, IL6, IL8, CXCL2, JUNB and IEX1, were selected and the effect of the identified SPIs on their expression under basal conditions and in response to NF-κB activation was tested (FIGS. 2A-C and 3A-C). Specifically, for analyzing expression under basal conditions, Hela cells were treated with vehicle (DMSO) or SPI for 2 hours and following RNA was extracted and analyzed by RT-qPCR.
# [2] = test system: replication-dependent histone genes; assay: RNA-seq after 24-h treatment: replication-dependent histone genes; type: cell-based, human; set-up: HIST1H2AH level, RNA-seq / HIST1H2AI level, RNA-seq / HIST1H2AK level, RNA-seq / HIST1H2AL level, RNA-seq / HIST1H2BF level, RNA-seq / HIST1H3A level, RNA-seq / HIST1H3B level, RNA-seq / HIST1H3D level, RNA-seq: scale not given here; settings: SPI-21 24 h
# Procedure: High-throughput sequencing of the total, labeled and Run-On transcripts (RNA-Seq and Gro-seq)—_The RNA-Seq libraries were prepared by the Genomics unit in The Nancy and Stephen Grand Israel National Center for Personalized Medicine (G-INCPM, Weizmann Institute of Science). Samples from 2-hour SPI treatment were prepared using in-house mRNA Seq protocol and polyA capturing and those from 24-hpur and 4sU treatments were prepared using the same protocol w/o PolyA capture (with random hexamers), and sequenced using an Illumina HiSeq 2500 system yielding about 30M SE reads of 61 bases. The GRO-seq RNA samples were reverse transcribed and amplified (15 cycles) using in-house mRNA Seq protocol w/o PolyA capture (with random hexamers) and sequenced in one lane using an Illumina HiSeq High Output (480 million reads, yielding more than 100M SE reads of 47 bases per sample). Each RNA-Seq analysis was carried out using two independent replicates.
# RNA-Seq and GRO-seq Bioinformatics analysis—_For the analysis of the 24 h, 4sU and GRO-seq data, we used the RNA-Seq pipeline of UTAP (Kohen et al. 2019) to determine the differentially expressed genes. For the 2-hour data, reads were mapped to the H. sapiens GRCh38 reference genome using STAR (Dobin et al., 2013) and expression levels for each gene were quantified using htseq-count (Anders et al., 2015). Differentially expressed genes were identified using DESeq2 (Love et al., 2014). […] The reads coverage was calculated using bed files containing the desired genomic regions and orientation (awk command) and the bedtools coverage tool (Quinlan et al., 2010).
# Since the RNA-seq following treatment with SPI-21 detects only polyadenylated transcripts and the treatment was effected for 2 hours, during which only a fraction of cells is in S-phase, an effect on histone genes was not found. Thus, to investigate further the regulation of histone genes by Spt5 using the identified SPIs, cells were treated for 24 hours with SPI-21 or SPI-18, to allow all cells to pass S-phase at least once. Following, mRNA was extracted and cDNA was prepared using random hexamers and the levels of 4 histone genes were determined. […] Spt5 requirement for expression of histone genes cannot be explained by a positive effect on elongation or mRNA processing since histone genes are very short and are intron-less. […] To resolve the discrepancy between the effect of Spt5 inhibition on steady-state levels and synthesis rate, the possibility that Spt5 is required for the processing of histone mRNAs was considered. In addition to the conserved stem-loop, histone genes have a canonical polyadenylation signal downstream of the stem-loop structure (FIG. 5B). It was therefore considered that Spt5 controls the choice between 3′ end processing via the stem-loop pathway or the polyadenylation pathway of histone pre-mRNAs. To this end, cDNA prepared by random hexamer and Poly-T the ratio between total and poly-A tailed histone genes was determined. […] Thus, the reduction in the histone gene expression upon Spt5 inhibition may be associated, at least in part, to a defect in 3′ end processing.
smiles,measurement,setting,value
COc1ccc(C=CC(=O)c2cc(O)ccc2O)cc1 [SPI-21],Up-regulation of pro-inflammatory genes under basal conditions (i.e. inhibiting proximal promoter pausing of pro-inflammatory genes induced by Spt5),[1],++ (++ >3)
same,"HIST1H1B level, RNA-seq",[2],0.4
same,"HIST1H1E level, RNA-seq",[2],0.5
same,"HIST1H2AG level, RNA-seq",[2],0.4
same,"HIST1H2AH level, RNA-seq",[2],0.5
same,"HIST1H2AI level, RNA-seq",[2],0.5
same,"HIST1H2AK level, RNA-seq",[2],0.6
same,"HIST1H2AL level, RNA-seq",[2],0.5
same,"HIST1H2BF level, RNA-seq",[2],0.5
same,"HIST1H3A level, RNA-seq",[2],0.4
same,"HIST1H3B level, RNA-seq",[2],0.5
same,"HIST1H3D level, RNA-seq",[2],0.4
same,"HIST1H3F level, RNA-seq",[2],0.5
same,"HIST1H3G level, RNA-seq",[2],0.5
same,"HIST1H4A level, RNA-seq",[2],0.5
same,"HIST1H4B level, RNA-seq",[2],0.5
same,"HIST1H4C level, RNA-seq",[2],0.7
same,"HIST1H4D level, RNA-seq",[2],0.5
same,"HIST1H4H level, RNA-seq",[2],0.7
same,"HIST2H2AC level, RNA-seq",[2],0.5
same,"HIST2H3D level, RNA-seq",[2],0.3
